A short description of one data set: physchem. The conditions noted are these: 50 mM phosphate buffer, 25 °C, pH 7.4, aqueous buffer, thermodynamic from solid.
The subject of the next data set is U937 cells. The data set can be described thus: Cellular assay in U937 cells to measure the activity of RIPK1-inhibitors on cell death (necroptosis). The data set is classed as cell-based. Particulars: Homo sapiens, U-937, 50 μM zVAD.fmk and 100 ng/ml recombinant human TNFα, overnight (18 to 24 hrs), MTS readout. The protocol:
Absorbance of formazan was read at 490 nm. The inhibitory activity of the test compound was quantified in a concentration response curve (CRC) experiment.
Compounds were obtained as 10 mM stock solutions and were diluted 1 to 10 volumes with DMSO to yield a 1 mM solution. From this solution 2 μl were diluted with 998 μl growth medium.
U937 cells were cultured in RPMI1640 Glutamax and 10% heat inactivated FBS. […] 50 μl of compound dilutions, as described in Cellular assay in U937 cells, were added and the cell suspension incubated overnight (18 to 24 hrs) at 37° C., 5% CO2 in a humidified atmosphere (95% rH).
CellTiter 96 Aqueous reagent was mixed (100 μl PMS (phenazine methosulfate) solution/2 ml MTS (3-(4,5-[…])-5-(3-carboxymethoxyphenyl)-2-(4-sulfophenyl)-2H-tetrazolium, inner salt) solution) and 20 μl were added per well. After 4 hrs incubation at 37° C. (5% CO2 95% rH) optical density was measured at 490 nm on a microplate reader (Tecan Infinite M1000).
The % inhibition is expressed as percentage of the maximal inhibition value obtained in the absence of TNFα/zVAD.fmc.

pIC50: −log10 of the molar value. Values after ≈ are worked out from the molar mass of the structure shown.

In turn, `Cc1ccc([C@@H]2CCON2C(=O)C2CCN(c3cc(-n4ccnc4C)ncn3)CC23CC3)cn1` (mixture of isomers) [Example 33, [5-[6-(2-methylimidazol-1-yl)pyrimidin-4-yl]-5-azaspiro[2.5]octan-8-yl]-[(3S)-3-(6-methylpyridin-3-yl)-1,2-oxazolidin-2-yl]methanone] displayed a solubility at 16 h in the data set “physchem” above 1090 µM. The pIC50 in the data set on U937 cells is 7.79.

On to `Cc1ccc([C@@H]2CCON2C(=O)C2CCN(c3cc(-c4ccnn4C)ncn3)CC23CC3)cn1` (mixture of isomers) [Example 34, [5-[6-(2-methylpyrazol-3-yl)pyrimidin-4-yl]-5-azaspiro[2.5]octan-8-yl]-[(3S)-3-(6-methylpyridin-3-yl)-1,2-oxazolidin-2-yl]methanone], for which the solubility at 16 h in “physchem” was above 1090 µM. The pIC50 in the data set with U937 cells was 7.28.

`Cc1ccc([C@@H]2CCON2C(=O)[C@@H]2CCN(c3cc(-n4ccnc4C)ncn3)CC23CC3)cn1` (single isomer, unassigned) [Example 78] came in with a solubility at 16 h in “physchem” above 1090 µM. Also, in the data set with U937 cells, the pIC50 was 7.49.

`Cc1ccc([C@@H]2CCON2C(=O)[C@H]2CCN(c3cc(-n4ccnc4C)ncn3)CC23CC3)cn1` (single isomer, unassigned) [Example 79] gave a solubility at 16 h in “physchem” above 1090 µM.

With `O=C1OCCN1c1ccnc(N2CCC(C(=O)N3OCC[C@H]3c3cnccn3)CC2)n1` [Example 2, (S)-3-(2-(4-(3-(pyrazin-2-yl)isoxazolidine-2-carbonyl)piperidin-1-yl)pyrimidin-4-yl)oxazolidin-2-one], the solubility at 16 h in “physchem” is above 1180 µM. Besides, in the data set with U937 cells, the pIC50 is 7.30.

The compound `O=C1CCCN1c1nc(N2CCC(C(=O)N3OCC[C@H]3c3cnccn3)CC2)ncc1F` [Example 6, 1-[5-fluoro-2-[4-[(3S)-3-pyrazin-2-ylisoxazolidine-2-carbonyl]-1-piperidyl]pyrimidin-4-yl]pyrrolidin-2-one] registered a solubility at 16 h in the data set “physchem” above 1130 µM. Moreover, in the data set on U937 cells, the pIC50 was 8.10.

In “physchem”, `Cc1ccc([C@@H]2CCON2C(=O)C2CCN(c3ncnc(-c4ccnn4C)n3)CC2)cn1` [Example 8] displayed a solubility at 16 h of 328 µM (≈ 142 µg/mL). Moreover, in the data set with U937 cells, the pIC50 is 8.52.

`Cc1cnn(-c2ccnc(N3CCC(C(=O)N4OCC[C@H]4c4ccc(C)nc4)CC3)n2)c1` [Example 9, [1-[4-(4-methylpyrazol-1-yl)pyrimidin-2-yl]-4-piperidyl]-[(3S)-3-(6-methyl-3-pyridyl)isoxazolidin-2-yl]methanone]: the solubility at 16 h in “physchem” was found to be 173 µM (≈ 74.9 µg/mL). For the same compound, in the data set on U937 cells, the pIC50 was 7.54.

Turning to `O=C(C1CCN(c2nccc(-c3ncco3)n2)CC1)N1OCC[C@H]1c1cnccn1` [Example 11, [1-(4-oxazol-2-ylpyrimidin-2-yl)-4-piperidyl]-[(3S)-3-pyrazin-2-ylisoxazolidin-2-yl]methanone], the solubility at 16 h in “physchem” is above 2780 µM. The negative-log IC50 (pIC50) in the data set on U937 cells was 8.00.

With `O=C(C1CCN(c2ncc(F)c(-c3ncco3)n2)CC1)N1OCC[C@H]1c1cnccn1` [Example 12, [1-(5-fluoro-4-oxazol-2-yl-pyrimidin-2-yl)-4-piperidyl]-[(3S)-3-pyrazin-2-ylisoxazolidin-2-yl]methanone], the solubility at 16 h in the data set “physchem” is above 1180 µM. Further, the pIC50 in the data set on U937 cells is 9.00.

Turning to `O=C(C1CCN(c2ncnc(-c3nccs3)n2)CC1)N1OCC[C@H]1c1cnccn1` [Example 14, [(3S)-3-pyrazin-2-ylisoxazolidin-2-yl]-[1-(4-thiazol-2-yl-1,3,5-triazin-2-yl)-4-piperidyl]methanone], the solubility at 16 h in the data set “physchem” was above 1180 µM. For the same compound, the pIC50 in the data set on U937 cells was 8.05.

The compound `Cc1cnn(-c2nccc(N3CCC(C(=O)N4OCC[C@H]4c4ccc(C)nc4)CC3)n2)c1` [Example 16, [1-[2-(4-methylpyrazol-1-yl)pyrimidin-4-yl]-4-piperidyl]-[(3S)-3-(6-methyl-3-pyridyl)isoxazolidin-2-yl]methanone] had a solubility at 16 h in the data set “physchem” of 169 µM (≈ 73.2 µg/mL). Further, the pIC50 in the data set on U937 cells is 7.28.

The compound `Cc1ccc([C@@H]2CCON2C(=O)C2CCN(c3ncc(F)c(-c4ccnn4C)n3)CC2)cn1` [Example 19, [1-[5-fluoro-4-(2-methylpyrazol-3-yl)pyrimidin-2-yl]-4-piperidyl]-[(3S)-3-(6-methyl-3-pyridyl)isoxazolidin-2-yl]methanone] showed a solubility at 16 h in the data set “physchem” of 7.1 µM (≈ 3.21 µg/mL).

Regarding `Cc1ccc([C@@H]2CCON2C(=O)C2CCN(c3nc(-c4ncco4)ncc3F)CC2)cn1` [Example 67, [1-[5-fluoro-2-(1,3-oxazol-2-yl)pyrimidin-4-yl]piperidin-4-yl]-[(3S)-3-(6-methylpyridin-3-yl)-1,2-oxazolidin-2-yl]methanone], in the data set on U937 cells, the pIC50 is 6.87.

On to `Cc1ncc([C@@H]2CCON2C(=O)C2CCN(c3ncc(F)c(N4CCC5(CC5)C4=O)n3)CC2)cc1F` [Example 68, 5-[5-fluoro-2-[4-[(3S)-3-(5-fluoro-6-methylpyridin-3-yl)-1,2-oxazolidine-2-carbonyl]piperidin-1-yl]pyrimidin-4-yl]-5-azaspiro[2.4]heptan-4-one], for which the pIC50 in the data set on U937 cells is 5.00.

As for `Cc1ccc([C@@H]2CCON2C(=O)C2CCN(c3nccc(N4CCC5(CC5)C4=O)n3)CC2)cn1` [Example 70, 5-[2-[4-[(3S)-3-(6-methylpyridin-3-yl)-1,2-oxazolidine-2-carbonyl]piperidin-1-yl]pyrimidin-4-yl]-5-azaspiro[2.4]heptan-4-one], the pIC50 with U937 cells is 6.97.

`O=C(C1CCN(c2nccc(N3CCCC4(CC4)C3=O)n2)CC1)N1OCC[C@H]1c1cncc(F)c1` [Example 72, 5-[2-[4-[(3S)-3-(5-fluoropyridin-3-yl)-1,2-oxazolidine-2-carbonyl]piperidin-1-yl]pyrimidin-4-yl]-5-azaspiro[2.5]octan-4-one]: the negative logarithm of the IC50 (pIC50) with U937 cells was 7.24.

As for `Cc1ccc([C@@H]2CCON2C(=O)C2CCN(c3nccc(N4CCC(F)(F)C4=O)n3)CC2)cn1` [Example 73, 3,3-difluoro-1-[2-[4-[(3S)-3-(6-methylpyridin-3-yl)-1,2-oxazolidine-2-carbonyl]piperidin-1-yl]pyrimidin-4-yl]pyrrolidin-2-one], the pIC50 in the data set on U937 cells was 6.26.

Consider `Cc1cncc([C@@H]2CCON2C(=O)C2CCN(c3nccc(N4CCC(F)(F)C4=O)n3)CC2)c1` [Example 74, 3,3-difluoro-1-[2-[4-[(3S)-3-(5-methylpyridin-3-yl)-1,2-oxazolidine-2-carbonyl]piperidin-1-yl]pyrimidin-4-yl]pyrrolidin-2-one], for which the pIC50 in the data set on U937 cells is 6.76.

Turning to `Cc1cncc([C@@H]2CCON2C(=O)C2CCN(c3nccc(N4CCCC(F)(F)C4=O)n3)CC2)c1` [Example 76, 3,3-difluoro-1-[2-[4-[(3S)-3-(5-methylpyridin-3-yl)-1,2-oxazolidine-2-carbonyl]piperidin-1-yl]pyrimidin-4-yl]piperidin-2-one], in the data set with U937 cells, the pIC50 is 6.31.

Regarding `Cc1ccc([C@@H]2CCON2C(=O)[C@H]2CCN(c3cc(-c4ccnn4C)ncn3)CC23CC3)cn1` [Example 80, [5-[6-(2-methylpyrazol-3-yl)pyrimidin-4-yl]-5-azaspiro[2.5]octan-8-yl]-[(3S)-3-(6-methylpyridin-3-yl)-1,2-oxazolidin-2-yl]methanone], the solubility at 16 h in “physchem” was above 1090 µM.

On to `Cc1ccc([C@@H]2CCON2C(=O)[C@@H]2CCN(c3ccnc(N4CCCC4=O)n3)CC23CC3)cn1` [Example 85, 1-[4-[(8R)-8-[(3S)-3-(6-methylpyridin-3-yl)-1,2-oxazolidine-2-carbonyl]-5-azaspiro[2.5]octan-5-yl]pyrimidin-2-yl]pyrrolidin-2-one], for which the pIC50 in the data set with U937 cells was 6.29.

As for `O=C1CCCN1c1cc(N2CCC(C(=O)N3OCC[C@H]3c3cncc(F)c3)CC2)ncn1` [Example 86, 1-[6-[4-[(3S)-3-(5-fluoropyridin-3-yl)-1,2-oxazolidine-2-carbonyl]piperidin-1-yl]pyrimidin-4-yl]pyrrolidin-2-one], the pIC50 in the data set with U937 cells was 6.11.

On to `Cc1ccc([C@@H]2CCON2C(=O)C2CCN(c3ccnc(N4CCCC4=O)n3)CC2)cn1` [Example 87, 1-[4-[4-[(3S)-3-(6-methylpyridin-3-yl)-1,2-oxazolidine-2-carbonyl]piperidin-1-yl]pyrimidin-2-yl]pyrrolidin-2-one], for which the pIC50 in the data set with U937 cells is below 5.00.

As to `Cc1ncc([C@@H]2CCON2C(=O)C2CCN(c3nccc(N4C(=O)CCC4(C)C)n3)CC2)cc1F` [Example 89, 1-[2-[4-[(3S)-3-(5-fluoro-6-methylpyridin-3-yl)-1,2-oxazolidine-2-carbonyl]piperidin-1-yl]pyrimidin-4-yl]-5,5-dimethylpyrrolidin-2-one], the pIC50 with U937 cells is 6.49.

On to `Cc1ccc([C@@H]2CCON2C(=O)C2CCN(c3ccnc(N4CCCC5(CC5)C4=O)n3)CC2)cn1` [Example 90, 5-[4-[4-[(3S)-3-(6-methylpyridin-3-yl)-1,2-oxazolidine-2-carbonyl]piperidin-1-yl]pyrimidin-2-yl]-5-azaspiro[2.5]octan-4-one], for which the pIC50 in the data set with U937 cells is 5.35.

Regarding `Cc1nc([C@@H]2CCON2C(=O)C2CCN(c3nccc(N4CCCC4=O)n3)CC2)cs1` [Example 92, 1-[2-[4-[(3S)-3-(2-methyl-1,3-thiazol-4-yl)-1,2-oxazolidine-2-carbonyl]piperidin-1-yl]pyrimidin-4-yl]pyrrolidin-2-one], the negative logarithm of the IC50 (pIC50) in the data set with U937 cells is 7.74.

Consider `Cc1ncc([C@@H]2CCON2C(=O)C2CCN(c3nccc(C4COC4)n3)CC2)cc1F` [Example 101, [(3S)-3-(5-fluoro-6-methylpyridin-3-yl)-1,2-oxazolidin-2-yl]-[1-[4-(oxetan-3-yl)pyrimidin-2-yl]piperidin-4-yl]methanone], for which the pIC50 with U937 cells was 5.59.
